Paper PMC7768359, “Synthesis of Platinum(II) Complexes with Some 1-Methylnitropyrazoles and In Vitro Research on Their Cytotoxic Activity” (Pharmaceuticals, 2020)

Experiments:
[1] = logP by shake-flask method (n-octanol / 0.9% NaCl, Pt by ICP-OES); format: physicochemical; details: octanol/water, n = 4
Procedure: An important factor for the pharmacokinetics and the cellular accumulation of the investigated complexes, their lipophilicity was determined by measuring octanol/water partition coefficients (logP) with the shake-flask method. The logP determination was carried out based on a previously described procedure, modified by us to obtain more accurate and repeatable results.
Weighted amounts of the tested platinum complex were suspended by 10 min sonification in 0.9% NaCl water solution, which was previously saturated with n-octanol, and mixed by shaking for 1 h. A simultaneously similar procedure was performed using 5 mL of n-octanol pre-saturated with 0.9% NaCl. Afterward, both suspensions were mixed together, shaken for an additional 1 h, and centrifuged for 5 min. After phase separation and evaporation in vacuo of 1 mL of sample to dryness, the final concentration of Pt was determined by ICP-OES (λ = 265.945 nm) and the partition coefficients were calculated. For the analysis, all samples were dissolved 1:1000 in 2.5% HCl. Each measurement was repeated four times and the final logP was calculated as the arithmetic mean of the four values.

[2] = test system: BALB/3T3 (murine embryonic fibroblast); assay: In vitro cytotoxicity, sulforhodamine B assay, normal cells; format: cell-based; details: for IC50: BALB/3T3 normal cells, normoxia, 72 h
Procedure: (§1) Determination of the cytotoxic activity of compounds tested was performed separately in the normoxia or hypoxia conditions to reveal their potentially bioreductive properties. The experiment was carried out on three human cancer cell lines: MCF-7 breast, ES-2 ovarian and A549 lung adenocarcinoma as well as normal murine embryonic fibroblast BALB/3T3 cell line. In order to facilitate the preparation of solutions of the tested compounds, their initial solutions for dilution were made by dissolving the compounds in acetone.
(§2) All cell lines were exposed to each compound tested at four different concentrations for 72 h. […] Additionally, all cell lines were exposed to acetone (Avantor Performance Materials, Gliwice, Poland) (the solvent used for tested compounds) at concentrations corresponding to those present in tested compounds’ dilutions.
After 72 h of cell incubation with the compounds tested, the sulforhodamine B (SRB) assay was performed as described by Shekan et al. with minor modifications. The cells were fixed in situ by adding 50 µL per well of cold 50% trichloroacetic acid (Avantor Performance Materials, Gliwice, Poland) and were incubated at 4 °C for one hour. Following that, wells were washed five times with water and air dried. Next, 50 µL of 0.4% solution of sulforhodamine B (Sigma-Aldrich, Steinheim, Germany) in 1% acetic acid (Avantor Performance Materials, Gliwice, Poland) were added to each well and plates were incubated at room temperature for 0.5 h. After incubation time, the unbound dye was removed by washing plates five times with 1% acetic acid, whereas stains bound to cells was solubilized with 10 mM Tris base (Sigma-Aldrich, Steinheim, Germany). The absorbance of each solution was read by the Multiskan RC photometer (Labsystems Diagnostics Oy, Vantaa, Finland) at a 540 nm wavelength. […] IC50 values were calculated for each experiment on the basis of four different concentrations using Cheburator software, as described by Nevozhay. The tested compounds at each concentration were tested in triplicates in a single experiment and each experiment was repeated at least three times independently.

[3] = test system: MCF-7 (breast adenocarcinoma); assay: In vitro cytotoxicity, sulforhodamine B assay; format: cell-based, human; details: for growth inhibition stronger than reference cisplatin (factor): MCF-7
Procedure: as §1, with “acetone. For this purpose, it was not possible to use more polar aprotic solvents (DMSO, DMF) due to the rapid isomerization of some of the tested complexes under their influence.” for “acetone.”
(§3) All the cell lines were cultured at 37 °C in a humid atmosphere containing 5% CO2. Additionally, in the case of cytotoxicity assay with hypoxic conditions, the cells (MCF-7, ES-2, A549) were maintained at 37 °C in a humid atmosphere containing 5% CO2 and 1% O2 during the entire experiment.
as §2, with “Twenty-four hours before adding the tested compounds, all cell lines were seeded in 96-well plates ([…] AG & Co, Nümbrecht Germany) in an appropriate media with 10^4 cells per well. All” for “All”
(§4) After 72 h of cell incubation with the compounds tested, the sulforhodamine B (SRB) assay was performed as described by Shekan et al. with minor modifications. The cells were fixed in situ by adding 50 µL per well of cold 50% trichloroacetic acid (Avantor Performance Materials, Gliwice, Poland) and were incubated at 4 °C for one hour. Following that, wells were washed five times with water and air dried. Next, 50 µL of 0.4% solution of sulforhodamine B (Sigma-Aldrich, Steinheim, Germany) in 1% acetic acid (Avantor Performance Materials, Gliwice, Poland) were added to each well and plates were incubated at room temperature for 0.5 h. After incubation time, the unbound dye was removed by washing plates five times with 1% acetic acid, whereas stains bound to cells was solubilized with 10 mM Tris base (Sigma-Aldrich, Steinheim, Germany). The absorbance of each solution was read by the Multiskan RC photometer (Labsystems Diagnostics Oy, Vantaa, Finland) at a 540 nm wavelength. Results are presented as mean IC50 (concentration of the compound tested that inhibits cell proliferation by 50%) ± standard deviation. IC50 values were calculated for each experiment on the basis of four different concentrations using Cheburator software, as described by Nevozhay. The tested compounds at each concentration were tested in triplicates in a single experiment and each experiment was repeated at least three times independently.

[4] = test system: ES-2 (ovarian adenocarcinoma); assay: In vitro cytotoxicity, sulforhodamine B assay; format: cell-based, human; details: 72 h
Procedure: as §1, with “acetone. For this purpose, it was not possible to use more polar aprotic solvents (DMSO, DMF) due to the rapid isomerization of some of the tested complexes under their influence.” for “acetone.”
as §3
as §2, with “Twenty-four hours before adding the tested compounds, all cell lines were seeded in 96-well plates ([…] AG & Co, Nümbrecht Germany) in an appropriate media with 10^4 cells per well. All” for “All”
as §4

[5] = test system: A549 (lung adenocarcinoma); assay: In vitro cytotoxicity, sulforhodamine B assay; format: cell-based, human; details: for IC50 ± SD / IC50: 72 h
Procedure: as §1, with “acetone. For this purpose, it was not possible to use more polar aprotic solvents (DMSO, DMF) due to the rapid isomerization of some of the tested complexes under their influence.” for “acetone.”
as §3
as §2, with “Twenty-four hours before adding the tested compounds, all cell lines were seeded in 96-well plates ([…] AG & Co, Nümbrecht Germany) in an appropriate media with 10^4 cells per well. All” for “All”
as §4

**Q.** Which results are given for `Cn1c([N+](=O)[O-])cc[n+]1[Pt@SP3-2]([Cl])([Cl])[n+]1ccc([N+](=O)[O-])n1C` [Compound 4, trans-dichloridobis(1-methyl-5-nitropyrazole)platinum(II)]?
**A.** logP ± SD [1]: 0.46 ± 0.00; IC50 [2]: 74.4 ± 23.2 µM; growth inhibition stronger than reference cisplatin (factor) [3]: almost two times; IC50 ([3]; MCF-7, hypoxia (1% O2), 72 h): 32 ± 9.2 µM; IC50 ([3]; MCF-7, normoxia, 72 h): 7.8 ± 1.3 µM; IC50 ([4]; ES-2, hypoxia (1% O2)): 32.3 ± 27 µM; IC50 ([4]; ES-2, normoxia): 41.1 ± 7.1 µM; IC50 ± SD ([5]; A549, hypoxia (1% O2)): inactive; IC50 ([5]; A549, normoxia): 31 ± 9.5 µM

**Q.** Which “logP ± SD” value [1] does the source give for `Cn1cc([N+](=O)[O-])c[n+]1[Pt@SP3-2]([Cl])([Cl])[n+]1cc([N+](=O)[O-])cn1C` [Compound 2, trans-dichloridobis(1-methyl-4-nitropyrazole)platinum(II)] here?
**A.** 1.43 ± 0.16,

**Q.** What about the IC50 [2] of the same molecule?
**A.** 8.19 ± 2.9 µM

**Q.** What about the “selectivity index (SI; ratio of cytotoxic concentration for healthy cells to that for cancer cells)” value ([2]; BALB/3T3 vs MCF-7, ES-2, A549, range) of the same molecule?
**A.** 2.2–11.7

**Q.** And the “growth inhibition stronger than reference cisplatin (factor)” value [3]?
**A.** about seven times

**Q.** What about the IC50 ([3]; MCF-7, hypoxia (1% O2), 72 h) of the same molecule?
**A.** 11.1 ± 5.6 µM

**Q.** And the IC50 ([3]; MCF-7, normoxia, 72 h)?
**A.** 1.8 ± 0.9 µM

**Q.** And the IC50 ([4]; ES-2, hypoxia (1% O2))?
**A.** 1.1 ± 0.3 µM

**Q.** And the IC50 ([4]; ES-2, normoxia)?
**A.** 0.7 ± 0.7 µM

**Q.** What about the “effect stronger than reference cisplatin (times)” value ([5]; A549) of the same molecule?
**A.** 2.6 times

**Q.** What about the IC50 ([5]; A549, hypoxia (1% O2)) of the same molecule?
**A.** 7.7 ± 7.4 µM

**Q.** What about the IC50 ([5]; A549, normoxia) of the same molecule?
**A.** 3.7 ± 2.9 µM

**Q.** With `Cn1c([N+](=O)[O-])cc[n+]1[Pt@SP2-2]([Cl])([Cl])[n+]1ccc([N+](=O)[O-])n1C` [Compound 3, cis-dichloridobis(1-methyl-5-nitropyrazole)platinum(II)] as the molecule, how does the “logP ± SD” value [1] read?
**A.** −0.31 ± 0.04

**Q.** And the IC50 [2]?
**A.** > 100 µM

**Q.** And the IC50 ([3]; MCF-7, hypoxia (1% O2), 72 h)?
**A.** 41.5 ± 39.9 µM

**Q.** And the IC50 ([3]; MCF-7, normoxia, 72 h)?
**A.** 10.1 ± 1.4 µM

**Q.** And the IC50 ([4]; ES-2, hypoxia (1% O2))?
**A.** 51.9 ± 16.7 µM

**Q.** And the IC50 ([4]; ES-2, normoxia)?
**A.** 75.4 ± 12.3 µM

**Q.** What about the “IC50 ± SD” value ([5]; A549, hypoxia (1% O2)) of the same molecule?
**A.** inactive

**Q.** What about the IC50 ([5]; A549, normoxia) of the same molecule?
**A.** 53.4 ± 10 µM

**Q.** For `Cn1cc([N+](=O)[O-])c[n+]1[Pt@SP2-2]([Cl])([Cl])[n+]1cc([N+](=O)[O-])cn1C` [Compound 1, cis-dichloridobis(1-methyl-4-nitropyrazole)platinum(II)], which “logP ± SD” value [1] is on record?
**A.** −0.35 ± 0.04

**Q.** What about the IC50 [2] of the same molecule?
**A.** > 100 µM

**Q.** And the “IC50 ± SD” value ([3]; MCF-7, hypoxia (1% O2), 72 h)?
**A.** inactive

**Q.** What about the IC50 ([3]; MCF-7, normoxia, 72 h) of the same molecule?
**A.** 74.7 ± 36.1 µM

**Q.** What about the IC50 ([4]; ES-2, hypoxia (1% O2)) of the same molecule?
**A.** 109 ± 22.6 µM

**Q.** And the IC50 ([4]; ES-2, normoxia)?
**A.** 29.4 ± 24.9 µM

**Q.** And the “IC50 ± SD” value ([5]; A549, hypoxia (1% O2))?
**A.** inactive

**Q.** And the IC50 ([5]; A549, normoxia)?
**A.** 103 ± 28.8 µM
